According to patent US11584737B2, “Heterocyclic compound” (TAKEDA PHARMACEUTICAL COMPANY LIMITED, priority 2018, dated 2023):

These molecules were tested against T1, CDK12/CycK complex (Homo sapiens, UniProt Q9NYV4) (assay: Measurement of CDK12 inhibitory activity by binding assay (BODIPY-FL labeled AT-7519 high concentration conditions, 1320 nM)). Conditions: inhibitory rate against CDK12 at 1 μM test compound, 1320 nM BODIPY-FL-labeled AT-7519, 8 nM CDK12/CycK.
Description: (4) Measurement of CDK12 Inhibitory Activity by Binding Assay (BODIPY-FL Labeled AT-7519 High Concentration Conditions)
(§1) His-tagged CDK12/CycK complex was blended with a binding assay buffer supplemented with BODIPY-FL labeled AT-7519, terbium-labeled streptavidin and biotin-labeled anti-histidine antibody. This solution was added to an assay plate containing a test compound dispensed therein, and the mixture was left standing for 120 min at room temperature. The final concentration of CDK12/CycK complex, BODIPY-FL-labeled AT-7519, terbium-labeled streptavidin and biotin-labeled anti-histidine antibody was set to 8 nM, 1320 nM, 0.2 nM, and 0.4 nM, respectively. The fluorescence intensity derived from terbium and BODIPY-FL was measured using Envision. The signal value of each well was determined using the TR-FRET ratio calculated by the following formula. TR-FRET ratio=(fluorescence value of BODIPY-FL)÷(fluorescence value of terbium)
(§2) The inhibitory rate (%) of the test compound against CDK12 was calculated by the following formula. Inhibitory rate (%)=(1−(TR-FRET ratio of test compound−blank)÷(control−blank))×100
The TR-FRET ratio of the CDK12 enzyme reaction mixture under compound non-addition conditions is indicated as control, and the TR-FRET ratio under 30 μM AT-7519 addition conditions is indicated as blank.
The inhibitory rate of the test compound against CDK12 at 1 μM is shown below.

T1 sequence (Q9NYV4 whole entry, species assumed): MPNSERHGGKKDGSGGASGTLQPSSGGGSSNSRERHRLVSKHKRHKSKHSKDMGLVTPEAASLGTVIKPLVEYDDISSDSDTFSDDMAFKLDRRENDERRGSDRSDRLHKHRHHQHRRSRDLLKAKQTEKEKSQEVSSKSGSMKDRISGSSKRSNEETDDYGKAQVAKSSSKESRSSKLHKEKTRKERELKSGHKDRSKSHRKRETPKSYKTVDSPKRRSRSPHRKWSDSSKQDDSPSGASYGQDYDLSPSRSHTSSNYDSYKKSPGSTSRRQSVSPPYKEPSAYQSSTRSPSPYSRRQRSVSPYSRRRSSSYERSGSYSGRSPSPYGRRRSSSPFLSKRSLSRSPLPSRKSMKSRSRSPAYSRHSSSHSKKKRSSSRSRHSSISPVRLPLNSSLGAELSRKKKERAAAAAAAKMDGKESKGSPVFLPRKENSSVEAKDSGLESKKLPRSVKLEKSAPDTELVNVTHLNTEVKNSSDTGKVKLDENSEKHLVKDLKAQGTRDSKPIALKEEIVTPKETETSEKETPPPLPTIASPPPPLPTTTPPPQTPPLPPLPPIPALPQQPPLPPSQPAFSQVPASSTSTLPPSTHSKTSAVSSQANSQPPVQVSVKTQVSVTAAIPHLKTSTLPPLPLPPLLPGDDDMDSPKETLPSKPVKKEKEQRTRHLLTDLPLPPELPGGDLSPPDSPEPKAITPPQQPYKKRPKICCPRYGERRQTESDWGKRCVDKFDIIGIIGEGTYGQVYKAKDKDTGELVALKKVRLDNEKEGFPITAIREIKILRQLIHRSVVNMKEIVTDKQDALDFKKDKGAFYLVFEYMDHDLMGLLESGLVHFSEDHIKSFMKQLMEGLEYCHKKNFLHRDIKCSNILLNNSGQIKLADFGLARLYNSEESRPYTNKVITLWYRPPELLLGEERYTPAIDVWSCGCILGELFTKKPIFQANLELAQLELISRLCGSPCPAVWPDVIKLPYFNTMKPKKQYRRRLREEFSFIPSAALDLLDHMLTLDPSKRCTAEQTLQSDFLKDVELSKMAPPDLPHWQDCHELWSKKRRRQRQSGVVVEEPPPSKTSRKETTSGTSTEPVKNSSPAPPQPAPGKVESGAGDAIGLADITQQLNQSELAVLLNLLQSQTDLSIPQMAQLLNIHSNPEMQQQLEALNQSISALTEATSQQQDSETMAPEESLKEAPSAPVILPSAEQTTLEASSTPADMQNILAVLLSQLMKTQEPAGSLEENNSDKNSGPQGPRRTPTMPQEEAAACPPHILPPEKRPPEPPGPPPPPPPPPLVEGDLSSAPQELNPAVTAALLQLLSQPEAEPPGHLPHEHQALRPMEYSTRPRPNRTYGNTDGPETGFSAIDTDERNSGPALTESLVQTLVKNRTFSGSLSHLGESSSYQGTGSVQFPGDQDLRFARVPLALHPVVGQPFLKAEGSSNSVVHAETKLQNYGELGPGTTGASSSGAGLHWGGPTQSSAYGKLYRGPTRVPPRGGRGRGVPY
T1 sequence (O75909 whole entry partner, species assumed): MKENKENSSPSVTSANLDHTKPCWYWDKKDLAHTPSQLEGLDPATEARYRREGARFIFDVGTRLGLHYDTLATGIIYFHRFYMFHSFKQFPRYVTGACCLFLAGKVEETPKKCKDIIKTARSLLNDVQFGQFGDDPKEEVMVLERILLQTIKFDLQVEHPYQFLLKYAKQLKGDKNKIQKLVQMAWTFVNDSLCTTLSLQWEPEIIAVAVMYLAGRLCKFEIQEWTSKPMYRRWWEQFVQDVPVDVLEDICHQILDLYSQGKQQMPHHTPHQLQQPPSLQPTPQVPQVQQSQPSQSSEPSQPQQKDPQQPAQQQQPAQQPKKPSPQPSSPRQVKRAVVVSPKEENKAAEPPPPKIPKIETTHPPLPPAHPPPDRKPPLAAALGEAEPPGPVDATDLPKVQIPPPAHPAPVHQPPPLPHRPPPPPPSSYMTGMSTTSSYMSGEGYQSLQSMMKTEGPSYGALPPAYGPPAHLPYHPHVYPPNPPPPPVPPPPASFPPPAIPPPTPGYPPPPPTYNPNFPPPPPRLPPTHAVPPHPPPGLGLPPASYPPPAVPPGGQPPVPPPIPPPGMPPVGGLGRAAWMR

inhibition at 1 µM	Structure (SMILES)
91%	COc1ncc(-c2cnc(N(C(=O)N3CC(C)(O)C3)[C@H]3CC[C@H](Nc4ncc(C(F)(F)F)c(-c5n[nH]cc5Cl)n4)CC3)cn2)cn1 [Example 746, N-(trans-4-((4-(4-chloro-1H-pyrazol-3-yl)-5-(trifluoro-methyl)pyrimidin-2-yl)-amino)cyclohexyl)-3-hydroxy-N-(5-(2-methoxypyrimidin-5-yl)pyrazin-2-yl)-3-methylazetidine-1-carboxamide]
90%	COCCNC(=O)N(c1cnc(-c2cnc(OC)nc2)cn1)[C@H]1CC[C@H](Nc2ncc(C(F)(F)F)c(-c3nn(C(F)F)cc3Cl)n2)CC1 [Example 752, 1-(trans-4-((4-(4-chloro-1-(difluoromethyl)-1H-pyrazol-3-yl)-5-(trifluoromethyl)-pyrimidin-2-yl)amino)cyclo-hexyl)-3-(2-methoxyethyl)-1-(5-(2-methoxypyrimidin-5-yl)pyrazin-2-yl)urea]
90%	COCCNC(=O)N(c1cnc(-c2cnn(C)c2)cn1)[C@H]1CC[C@H](Nc2ncc(C(F)(F)F)c(-c3nn(C(F)F)cc3Cl)n2)CC1 [Example 756, 1-(trans-4-((4-(4-chloro-1-(difluoromethyl)-1H-pyrazol-3-yl)-5-(trifluoromethyl)-pyrimidin-2-yl)amino)cyclo-hexyl)-3-(2-methoxyethyl)-1-(5-(1-methyl-1H-pyrazol-4-yl)pyrazin-2-yl)urea]

More lines, now with the values behind:

Structure (SMILES)	inhibition at 1 µM
COc1ncc(-c2cnc(N(C(=O)NCc3ccccc3)[C@H]3CC[C@H](Nc4ncc(C(F)(F)F)c(OC5(C)COC5)n4)CC3)cn2)cn1 [Example 640, 3-benzyl-1-(5-(2-methoxypyrimidin-5-yl)pyrazin-2-yl)-1-(trans-4-((4-((3-methyloxetan-3-yl)oxy)-5-(trifluoromethyl)pyrimidin-2-yl)amino)cyclohexyl)urea]	105%
COc1ncc(-c2ccc(N(C(=O)NCC(F)F)[C@H]3CC[C@H](Nc4ncc(C(F)(F)F)c(-c5cncc(S(C)(=O)=O)c5)n4)CC3)nc2)cn1 [Example 741, 3-(2,2-difluoroethyl)-1-(trans-4-((4-(5-(methane-sulfonyl)pyridin-3-yl)-5-(trifluoromethyl)pyrimidin-2-yl)amino)cyclohexyl)-1-(5-(2-methoxypyrimidin-5-yl)pyridin-2-yl)urea]	87%
COc1ncc(-c2cnc(N(C(=O)NCC(F)F)[C@H]3CC[C@H](Nc4ncc(C(F)(F)F)c(-c5n[nH]c(C)c5Cl)n4)CC3)cn2)cn1 [Example 745, 1-(trans-4-((4-(4-chloro-5-methyl-1H-pyrazol-3-yl)-5-(trifluoromethyl)pyrimidin-2-yl)amino)cyclohexyl)-3-(2,2-difluoroethyl)-1-(5-(2-methoxypyrimidin-5-yl)pyrazin-2-yl)urea]	94%

What follows are molecules tested against T1, CDK12/CycK complex (assay: Measurement of CDK12 inhibitory activity by binding assay (TR-FRET, 66 nM BODIPY-FL-labeled AT-7519)). Conditions: inhibitory rate against CDK12 at 1 μM test compound, 66 nM BODIPY-FL-labeled AT-7519, 2 nM CDK12/CycK.
Description: Experimental Example 1: CDK12 Binding Assay
(3) Measurement of CDK12 Inhibitory Activity by Binding Assay
as §1, with “added to” for “blended with”, “antibody, and the mixture was stood for not less than 60 min at room temperature.” for “antibody.”, “2” for “8”, “66” for “1320”
as §2
The TR-FRET ratio of the CDK12 enzyme reaction mixture under compound non-addition conditions is indicated as control, and the TR-FRET ratio under 3 μM AT-7519 addition conditions is indicated as blank.
The inhibitory rate of the test compound against CDK12 at […] is shown below.

Structure (SMILES)	inhibition at 1 µM
COc1ncc(-c2ccc(N(C(=O)N[C@H](C)c3ccccc3)[C@H]3CC[C@H](Nc4ncc(C(F)(F)F)c(N5CC(C)(O)C5)n4)CC3)nc2)cn1 [Example 631, 1-(trans-4-((4-(3-hydroxy-3-methylazetidin-1-yl)-5-(trifluoromethyl)pyrimidin-2-yl)amino)cyclohexyl)-1-(5-(2-methoxypyrimidin-5-yl)pyridin-2-yl)-3-((1R)-1-phenylethyl)urea]	103%
COc1ncc(-c2ccc(N(C(=O)N[C@@H](C)c3ccccc3)[C@H]3CC[C@H](Nc4ncc(C(F)(F)F)c(N5CC(C)(O)C5)n4)CC3)nc2)cn1 [Example 633, 1-(trans-4-((4-(3-hydroxy-3-methylazetidin-1-yl)-5-(trifluoromethyl)pyrimidin-2-yl)amino)cyclohexyl)-1-(5-(2-methoxypyrimidin-5-yl)pyridin-2-yl)-3-((1S)-1-phenylethyl)urea]	102%
